Experimental data as given in US20160178613A1, “Electrical Cell-substrate Impedance Sensor (ECIS)” (priority 2015, published 2016).

Tests used:
MCF-7 cells = test: SiNW-ECIS electrical impedance/capacitance response of MCF-7 cells treated with antitubulin drugs; format: cell-based, human; details: PTX 0.1 nano-moles per liter; for changes in membrane impedance vs control sample (normalized, mean) / variations in capacitance of the sensor vs control sample (normalized): MCF-7, 2 hours (T1) after drug incubation; for changes in membrane impedance vs control sample (normalized, mean) / variations in capacitance of the sensor vs control sample (normalized) / change in norm of impedance of treated cells, T1 vs T2 / changes in electrical impedance with respect to control sample / norm of capacitive changes, control sample more than drug value: ABZ 2.1 nano-moles per liter; for changes in electrical impedance with respect to control sample / norm of capacitive changes, control sample more than drug value: MCF-7, 6 hours (T2) after drug incubation
Procedure: In this example, the diagnostic response of cells membrane to extremely low dose of antitubulin drugs is investigated. Initially, MCF-7 cell lines, isolated from grade I human breast tumors, were obtained from the National Cell Bank of Iran (Pasteur Institute). Then, cells were maintained in a CO2 incubator (37° C., 5% CO2) in RPMI-1640 medium supplemented with 5% fetal bovine serum, and 1% penicillin/streptomycin. The fresh medium was replaced every other day. Then, the cultured cells were dropped on the surface of the SiNW-ECIS, designed and fabricated pursuant to teachings of the present application. Prior to each experiment, cells were trypsinized to be detached from the substrate and resuspended on the SiNW surface. To minimize the effect of trypsinization, the procedure may last for less than 4 minutes at room temperature of about 20° C. The samples were held in an incubator for about 4 hours to achieve cells attachment on the SiNWs. Thereafter, the ABZ drug with low concentrations of about 2.1 nano-moles per liter and the PTX drug with low concentrations of about 0.1 nano-moles per liter were added to individual samples. Finally, the signal recording and biological assays were investigated about 2 hours and 6 hours after the drug treatment (6 hours and 10 hours after the beginning of culturing process).
Referring to FIGS. 12A-12G, comparative normalized diagrams of impedance (designated by ΔZ % and represented by solid black lines) and capacitance changes (designated by ΔC % and represented by dashed grey lines) are illustrated for MCF-7 cells seeded on SiNW electrodes after treating by 2.1 nano-moles per liter of ABZ and 0.1 nano-moles per liter of PTX. The time interval between the drug incubation and the signal extraction are 2 hours (designated by T1) and 6 hours (designated by T2). In addition, the same diagrams are plotted for control sample prepared with no drug treatment stage.
According to the method described in the present example, the samples were maintained in an incubator so that the signal extraction was repeated 10 hours after cells dropping (6 hours after drug incubation for treated samples) to monitor the time evolution of drug induced MT polymerization/depolymerization on bioelectrical response of the membrane.

[1] = tested on: tubulin assemblies of MCF-7 cells; test: Confocal microscopy of tubulin assemblies of MCF-7 cells; format: cell-based, human; details: ABZ 2.1 nano-moles per liter, PTX 0.1 nano-moles per liter
Procedure: In addition, an un-treated control sample was prepared as reference for comparison. Then, samples were washed with PBS and permeabilized with microtubule stabilizing buffer [80 mM PIPES-KOH (pH 6.8), 5 mM EGTA, and 1 mM MgCl2 containing 0.5% Triton X-100] for 5 min at room temperature before being fixed with chilled absolute methanol for 10 min at −20° C. Thereafter, the fixed cells were washed and incubated with monoclonal mouse anti-α-tubulin antibody (Sigma Co.) for 1 hour at room temperature followed by incubation with FITC-conjugated antimouse IgG antibody (Santa Cruz Biotechnology). The stained cells were mounted with Vectashield (Vector Laboratories, Burlingame, Calif.) and observed by confocal microscopy.

[2] = MCF-7, 2 hours vs 6 hours after drug incubation

Structure (SMILES) | changes in membrane impedance vs control sample (normalized, mean) (MCF-7 cells) | variations in capacitance of the sensor vs control sample (normalized) (MCF-7 cells) | change in norm of impedance of treated cells, T1 vs T2 (MCF-7 cells; [2]) | changes in electrical impedance with respect to control sample (MCF-7 cells) | norm of capacitive changes, control sample more than drug value (MCF-7 cells) | spindle / microtubule morphology in confocal image ([1]; MCF-7, 2 hours after treatment) | spindle / microtubule morphology in confocal image ([1]; MCF-7, 6 hours after treatment) | time dependent variation in capacitive behavior, T1 vs T2 (MCF-7 cells; [2])
CCCSc1ccc2nc(NC(=O)OC)[nH]c2c1 [ABZ, Albendazole] | 25% | 70% | about 60% | about 90% | about 90% | abnormally reduced numbers of spindles or monopolar (monoaster) spindles | still the monoastered MTs are observable | –
CC(=O)O[C@H]1C(=O)[C@@]2(C)[C@H]([C@H](OC(=O)c3ccccc3)[C@]3(O)C[C@H](OC(=O)[C@H](O)[C@@H](NC(=O)c4ccccc4)c4ccccc4)C(C)=C1C3(C)C)[C@]1(OC(C)=O)CO[C@@H]1C[C@@H]2O [PTX, Paclitaxel] | about 50% | about 60% | 15% | about 30% | ~75% | aggregated spindles | increased aggregation in MT spindles | about 85%
